Target: T1, Aromatase (Homo sapiens, UniProt P11511)
T1 sequence (P11511 whole entry): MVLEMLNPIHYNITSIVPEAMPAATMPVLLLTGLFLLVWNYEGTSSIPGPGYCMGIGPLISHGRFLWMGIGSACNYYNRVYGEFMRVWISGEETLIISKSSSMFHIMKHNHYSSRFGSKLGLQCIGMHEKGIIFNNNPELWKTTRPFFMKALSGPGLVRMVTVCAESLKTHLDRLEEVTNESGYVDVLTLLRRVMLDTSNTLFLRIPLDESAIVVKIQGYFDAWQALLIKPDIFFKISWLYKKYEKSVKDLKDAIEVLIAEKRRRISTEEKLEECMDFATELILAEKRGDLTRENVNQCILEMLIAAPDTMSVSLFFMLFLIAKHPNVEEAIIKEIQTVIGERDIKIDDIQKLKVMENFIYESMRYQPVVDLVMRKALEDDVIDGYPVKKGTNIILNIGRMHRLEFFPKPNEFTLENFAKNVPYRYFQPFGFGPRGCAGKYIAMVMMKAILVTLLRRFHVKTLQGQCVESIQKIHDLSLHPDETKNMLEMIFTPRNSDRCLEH
Experiment: Aromatase Assay
Settings: pH 7.5; 37 °C
Method: The enzyme activity was assayed by measuring the 3H-labeled H2O formed from [1beta-3H] Androstenedione during aromatization. After incubation, the reaction was terminated by CHCl3 extraction and centrifugation. Aliquots of the water phase were assayed for the presence of 3H2O by counting using a liquid scintillation spectrometer.

| Compound | IC50 | Ki |
| --- | --- | --- |
| CO[C@H]1CCC[C@@]2(CO)C1=CCC1C2CC[C@]2(C)C(=O)CCC12 (stereo partly drawn) [4beta-Methoxy-19-hydroxyandrost-5-en-17-one] | 150000 nM | – |
| C[C@]12CCC3C(C[C@@H](O)C4=CCCC[C@@]43CO)C1CCC2=O (stereo partly drawn) [6beta,19-dihydroxyandrost-4-en-17-one] | 940 nM | 110 nM |
| C[C@]12CCCCC1=CCC1C2CC[C@]2(C)C(=O)CCC12 (stereo partly drawn) [(2R,15S)-2,15-dimethyltetracyclo[8.7.0.0^{2,7}.0^{11,15}]heptadec-7-en-14-one] | 660 nM | 120 nM |
| CC(=O)O[C@@H]1CCC[C@@]2(CO)C1=CCC1C2CC[C@]2(C)C(=O)CCC12 (stereo partly drawn) [(2S,6R,15S)-2-(hydroxymethyl)-15-methyl-14-oxotetracyclo[8.7.0.0^{2,7}.0^{11,15}]heptadec-7-en-6-yl acetate] | 11000 nM | – |
| C[C@]12CCC3C(C[C@H](O)C4=CCCC[C@@]43CO)C1CCC2=O (stereo partly drawn) [(2S,8S,15S)-8-hydroxy-2-(hydroxymethyl)-15-methyltetracyclo[8.7.0.0^{2,7}.0^{11,15}]heptadec-6-en-14-one] | 1400 nM | 250 nM |
| C[C@]12CCC3C(CCC4=CCCC[C@@]43CO)C1CCC2=O (stereo partly drawn) [(2S,15S)-2-(hydroxymethyl)-15-methyltetracyclo[8.7.0.0^{2,7}.0^{11,15}]heptadec-6-en-14-one] | 49 nM | 5.8 nM |
| C[C@]12CCC3C(CC=C4CCCC[C@@]43CO)C1CCC2=O (stereo partly drawn) [(2S,15S)-2-(hydroxymethyl)-15-methyltetracyclo[8.7.0.0^{2,7}.0^{11,15}]heptadec-7-en-14-one] | 6900 nM | 1000 nM |

From BindingDB's records for doi:10.1021/jm010282t (Tohoku Pharmaceutical University, 2001)
